Experiments:
[1] = molecular target: T1, human mGluR2 receptor (Homo sapiens, UniProt Q14416); test: [35S]GTPγS binding assay (PAM assay) using membranes from CHO cells transfected with the human mGluR2 receptor; assay type: biochemical; conditions: in presence of mGluR2 agonist glutamate at a predetermined EC25 concentration; averages of duplicate values of 11-concentration response curves; error about 0.3 log-units; read-out: GTPgS-hR2 PAM pEC50 (converted)
T1 construct: expressed in transfected cells; host or cells: CHO cells
T1 sequence (Q14416 19-872): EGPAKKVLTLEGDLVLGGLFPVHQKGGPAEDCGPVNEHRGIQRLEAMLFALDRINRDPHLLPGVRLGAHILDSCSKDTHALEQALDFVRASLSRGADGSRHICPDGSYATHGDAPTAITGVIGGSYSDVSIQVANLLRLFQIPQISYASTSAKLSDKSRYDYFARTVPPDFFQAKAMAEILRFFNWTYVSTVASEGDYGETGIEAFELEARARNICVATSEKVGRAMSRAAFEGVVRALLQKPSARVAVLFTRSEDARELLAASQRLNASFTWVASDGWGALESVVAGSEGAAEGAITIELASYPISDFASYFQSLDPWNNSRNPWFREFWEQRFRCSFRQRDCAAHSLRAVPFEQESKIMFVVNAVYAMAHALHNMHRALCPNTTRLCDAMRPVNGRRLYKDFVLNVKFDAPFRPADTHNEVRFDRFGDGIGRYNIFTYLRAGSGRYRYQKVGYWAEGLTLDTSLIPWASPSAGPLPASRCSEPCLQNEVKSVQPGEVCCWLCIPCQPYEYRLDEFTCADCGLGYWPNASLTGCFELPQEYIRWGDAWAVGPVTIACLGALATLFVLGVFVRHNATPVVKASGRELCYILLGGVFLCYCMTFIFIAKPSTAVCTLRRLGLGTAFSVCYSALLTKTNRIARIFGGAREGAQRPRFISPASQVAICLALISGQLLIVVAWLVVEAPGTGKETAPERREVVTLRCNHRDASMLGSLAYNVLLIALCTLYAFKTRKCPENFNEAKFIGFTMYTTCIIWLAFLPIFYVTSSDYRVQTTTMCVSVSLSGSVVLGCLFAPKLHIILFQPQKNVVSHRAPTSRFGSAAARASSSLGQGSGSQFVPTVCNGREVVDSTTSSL
Text: The compounds provided in the present invention are positive allosteric modulators of mGluR2. These compounds appear to potentiate glutamate responses by binding to an allosteric site other than the glutamate binding site. The response of mGluR2 to a concentration of glutamate is increased when compounds of Formula (I) are present. Compounds of Formula (I) are expected to have their effect substantially at mGluR2 by virtue of their ability to enhance the function of the receptor. The behaviour of positive allosteric modulators tested at mGluR2 using the [^35S]GTPγS binding assay method described below and which is suitable for the identification of such compounds, and more particularly the compounds according to Formula (I), are shown in Table 4.
The [^35S]GTPγS binding assay is a functional membrane-based assay used to study G-protein coupled receptor (GPCR) function whereby incorporation of a non-hydrolysable form of GTP, [^35S]GTPγS (guanosine 5′-triphosphate, labelled with […] ^35S), is measured. The G-protein α subunit catalyzes the exchange of guanosine 5′-diphosphate (GDP) by guanosine triphosphate (GTP) and on activation of the GPCR by an agonist, [^35S]GTPγS, becomes incorporated and cannot be cleaved to continue the exchange cycle (Harper (1998) Current Protocols in Pharmacology 2.6.1-10, John Wiley & Sons, Inc.). […] Here we describe the use of the [^35S]GTPγS binding assay using membranes from cells transfected with the human mGluR2 receptor and adapted from Schaffhauser et al ((2003) Molecular Pharmacology 4:798-810) for the detection of the positive allosteric modulation (PAM) properties of the compounds of this invention.
CHO-cells were cultured to pre-confluence and stimulated with 5 mM butyrate for 24 hours, prior to washing in PBS (phosphate-buffered saline), and then collection by scraping in homogenisation buffer (50 mM Tris-HCl buffer, pH 7.4, 4° C.). Cell lysates were homogenized briefly (15 s) using an ultra-turrax homogenizer. The homogenate was centrifuged at 23 500×g for 10 min. and the supernatant discarded. The pellet was resuspended in 5 mM Tris-HCl, pH 7.4 and centrifuged again (30 000×g, 20 min., 4° C.). The final pellet was resuspended in 50 mM HEPES, pH 7.4 and stored at −80° C. in appropriate aliquots before use. Protein concentration was determined by the Bradford method (Bio-Rad, USA) with bovine serum albumin as standard.
Measurement of mGluR2 positive allosteric modulatory activity of test compounds in membranes containing human mGluR2 was performed using frozen membranes that were thawed and briefly homogenised prior to pre-incubation in 96-well microplates (15 μg/assay well, 30 minutes, 30° C.) in assay buffer (50 mM HEPES pH 7.4, 100 mM NaCl, 3 mM MgCl2, 50 μM GDP, 10 μg/ml saponin) with increasing concentrations of positive allosteric modulator (from 0.3 nM to 50 μM) and either a minimal pre-determined concentration of glutamate (PAM assay), or no added glutamate. For the PAM assay, membranes were pre-incubated with glutamate at EC25 concentration, i.e. a concentration that gives 25% of the maximal response glutamate, and is in accordance to published data (Pin et al. (1999) Eur. J. Pharmacol. 375:277-294). After addition of [^35S]GTPγS (0.1 nM, f.c.) to achieve a total reaction volume of 200 μl, microplates were shaken briefly and further incubated to allow [^35S]GTPγS incorporation on activation (30 minutes, 30° C.). The reaction was stopped by rapid vacuum filtration over glass-fibre filter plates (Unifilter 96-well GF/B filter plates, Perkin-Elmer, Downers Grove, USA) microplate using a 96-well plate cell harvester (Filtermate, Perkin-Elmer, USA), and then by washing three times with 300 μl of ice-cold wash buffer (Na2PO4.2H2O 10 mM, NaH2PO4.H2O 10 mM, pH=7.4). […]

EC50 [1] | melting point | Structure (SMILES)
102 nM |  | CCCCn1ccc(-c2ccc3c(ccn3[C@H]3CC[C@H](O)CC3)c2)c(Cl)c1=O [Compound 3, trans-1-Butyl-3-chloro-4-[1-(4-hydroxy-cyclohexyl)-1H-indol-5-yl]-1H-pyridin-2-one]
148 nM |  | CCCCn1ccc(-c2ccc3c(ccn3[C@H]3CC[C@@H](O)CC3)c2)c(Cl)c1=O [Compound 4, cis-1-Butyl-3-chloro-4-[1-(4-hydroxy-cyclohexyl)-1H-indol-5-yl]-1H-pyridin-2-one]
89.1 nM | 182.3 °C | CC(C)CCn1ccc(-c2ccc3c(ccn3[C@H]3CC[C@H](O)CC3)c2)c(Cl)c1=O [Compound 7, trans-3-Chloro-4-[1-(4-hydroxy-cyclohexyl)-1H-indol-5-yl]-1-(3-methyl-butyl)-1H-pyridin-2-one]
302 nM | 209.4 °C | O=c1c(Cl)c(-c2ccc3c(ccn3[C@H]3CC[C@H](O)CC3)c2)ccn1CC1CC1 [Compound 8, trans-3-Chloro-1-cyclopropylmethyl-4-[1-(4-hydroxy-cyclohexyl)-1H-indol-5-yl]-1H-pyridin-2-one]

Further lines, the compound ahead of its results:

Structure (SMILES) | EC50 [1] | melting point
CCCCn1ccc(-c2ccc3c(c2)OCCN3C2CCOCC2)c(Cl)c1=O [Compound 1, 1-Butyl-3-chloro-4-[4-(tetrahydro-pyran-4-yl)-3,4-dihydro-2H-benzo[1,4]oxazin-7-yl]-1H-pyridin-2-one] | 589 nM | 
CCCCn1ccc(-c2ccc3c(ccn3[C@H]3CC[C@](C)(O)CC3)c2)c(Cl)c1=O [Compound 5, trans-1-Butyl-3-chloro-4-[1-(4-hydroxy-4-methyl-cyclohexyl)-1H-indol-5-yl]-1H-pyridin-2-one] | 75.9 nM | 
CCCCn1ccc(-c2ccc3c(ccn3[C@H]3CC[C@@](C)(O)CC3)c2)c(Cl)c1=O [Compound 6, cis-1-Butyl-3-chloro-4-[1-(4-hydroxy-4-methyl-cyclohexyl)-1H-indol-5-yl]-1H-pyridin-2-one] | 302 nM | 
CCCCn1ccc(-c2ccc3c(ccn3C3CCOCC3)c2)c(Cl)c1=O [Compound 9, 1-Butyl-3-chloro-4-[1-(tetrahydro-pyran-4-yl)-1H-indol-5-yl]-1H-pyridin-2-one] | 309 nM | 
